The values below come from patent US20230145666A1, “REAL TIME ELECTRONIC CELL SENSING SYSTEMS AND APPLICATIONS FOR CELL-BASED ASSAYS” (Agilent Technologies, Inc., priority 2002, published 2023).

Common to all, as to type: cell-based, rat
For test [1], the system named is IgE-mediated RBL-2H3 mast cell activation. The experiment in a line: Cell-substrate impedance assay: pharmacological inhibition of antigen-mediated mast cell activation. To be noted: at peak response. As for the experimental part: RBL-2H3 mast cells were sensitized with 100 ng/mL anti-DNP-IgE and then incubated with the indicated concentrations of the Bisindolylmaleimide 1 hour prior to addition of 100 ng/mL DNP-BSA. The impedance value indicated as Cell Index was monitored using a cell-substrate impedance monitoring system of the present invention.
The real-time cell-substrate impedance monitoring system comprises three components, an impedance analyzer, a device station, and one or more 16X microtiter devices. Microelectrode sensor arrays were fabricated on glass slides using lithographical microfabrication methods and the electrode-containing slides were assembled to plastic trays to form 16 electrode-containing wells. The device station of the system receives the 16X microtiter devices and is capable of electronically switching any one of the wells to the sensor (impedance) analyzer for impedance measurement. In operation, the devices with cells cultured in the wells are placed into a device station that is located inside an incubator. Electrical cables connect the device station to the sensor (impedance) analyzer. Under the impedance monitoring system’s software control, the impedance analyzer can automatically select wells to be measured and continuously conduct impedance measurements. The impedance data from the analyzer is transferred to a computer, analyzed and processed by integrated software.
To quantify cell status based on the measured cell-electrode impedance, a parameter termed Cell Index is derived, according to
where Rb (f) and Rcell (f) are the frequency dependent electrode resistances (a component of impedance) without cells or with cell present, respectively. N is the number of the frequency points at which the impedance is measured. Thus, Cell Index is a quantitative measure of the status of the cells in an electrode-containing well. Under the same physiological conditions, more cells attached on to the electrodes leads to larger Rcell (f) value, leading to a larger value for Cell Index. […]
20,000 RBL-2H3 cells were seeded per well of a 16X microtiter device and monitored by the impedance measuring system. […] The cell-electrode impedance was continuously measured and the corresponding, time dependent Cell-Index values were derived and recorded.
RBL-2H3 cells were seeded in a 16X microtiter plate device and pre-stimulated with anti-DNP-IgE were incubated for 1 hour with the indicated doses of the PKC-specific inhibitor Bisindolylmaleimide and subsequently treated with 100 ng/mL DNP-BSA (FIG. 17). The dose-dependent inhibition of RBL-2H3 mast cell activation by Bisindolylmaleimide can be monitored on the cell-substrate monitoring system in real-time. […]

For test [2], the system named is RBL-2H3 mast cells. The experiment in a line: Impedance monitoring of RBL-2H3 mast cell response to IgE and antigen. To be noted: anti-DNP IgE sensitized, 100 ng/mL DNP-BSA (FIG. 14). As to the method: FIG. 13 is a plot of cell index recording indicating mast cell responses to IgE in the presence or absence of antigen. 20,000 RBL-2H3 mast cells were seeded in each well of a 16× device. Cells were allowed to adhere and grow for 22 hours while being recorded. At 22 hours the cells were treated with either 1 microgram/mL non-specific mouse IgG or 1 microgram/mL anti-DNP mouse IgE. The electronic impedance response of the cells were continued to be recorded for an additional 20 hours after which the media in the wells were aspirated and replaced with fresh serum free media. The cells were allowed to recover for 30 minutes and then treated with the 1 microgram/mL of the antigen, DNP-BSA. The electronic impedance response of the cells was measured for an additional 3 hours.
Approximately 14 hours after seeding the cells were incubated with 100 ng/mL anti-DNP IgE followed by application of 100 ng/mL DNP-BSA 24 hours later. Impedance measurements (indicated as Cell Index) were performed at 5 minute intervals post DNP-BSA application.
FIGS. 16A-B show IgE alone-mediated increase in mast cell-electrode impedance response and its effect on antigen-mediated activation step. (A) RBL-2H3 cells seeded on microelectronic sensor arrays were left untreated or treated with indicated concentration of anti-DNP IgE. The impedance value indicated as Cell Index was continuously monitored and recorded using a cell-substrate impedance monitoring system. […] The impedance value indicated as Cell Index was continuously monitored using the system. […]
RBL-2H3 cells were seeded in the 16X device chamber (depicted in FIG. 2) at 20,000 cells/well and the attachment and growth of the cells in the 37° C. tissue culture incubator were monitored in real-time using the cell-substrate monitoring system. […]
20,000 RBL-2H3 cells were seeded per well of a 16X microtiter device and monitored by the impedance measuring system. […] The cell-electrode impedance was continuously measured and the corresponding, time dependent Cell-Index values were derived and recorded. […]

Test [3] concerns RBL-2H3 mast cells. The test can be described thus: Fluorescence microscopy of actin cytoskeleton (rhodamine-phalloidin). To be noted: DNP-BSA cross-linking. As to the method:
FIGS. 15A-B show correlation between cell-electrode impedance response of RBL-2H3 mast cells and cell morphological dynamics and mediator release. (A) RBL-2H3 mast cells were sensitized with 100 ng/mL IgE or treated with a control IgG antibody and subsequently activated with DNP-BSA. The cells were fixed with paraformaldehyde at the indicated time points, permeablized and stained with rhodamine-phalloidin. The cells were visualized and photographed with a Nikon E-400 immunoflourescence microscope equipped with a CCD camera. (B) RBL-2H3 cells were sensitized with IgE, activated by the addition of DNP-BSA.
RBL-2H3 cells were seeded in 16 well Lab-Tec chamber slides and allowed to attach and spread for 6 hours. The cells were stimulated with anti-DNP IgE at a final concentration of 100 ng/mL or a non-specific mouse IgG at 100 ng/mL and then 16 hours later, the media was aspirated, replaced with fresh media and treated with 100 ng/mL DNP-BSA for the indicated time and then fixed with 4 % parafarmaldehyde. The cells were washed 3X with PBS, permeablized in PBS containing 0.2% TX-100 and blocked in PBS containing 0.5 % BSA. The cells were then stained with rhodamine-phalloidin for 30 minutes, washed 3X with PBS and visualized and imaged using the tritc filter on a Nikon E400 epi-fluorescence microscope and Nikon ACT software. […]

[4] abbreviates: Rattus norvegicus, RBL-2H3, mast cell activation by impedance, Bisindolylmaleimide N=3, SU6656 N=5, U73122 N=5, Piceatannol N=1, read-out: IC50±SD.

Read-outs that look alike come from different tables or passages of the source. Bounds are passed on as bounds.

Regarding `Oc1cc(O)cc(/C=C/c2ccc(O)c(O)c2)c1` [Piceatannol], the IC50 in test [1] (setting [4]) worked out at 1000 nM.
On the same count and under the same terms, with `CN(C)S(=O)(=O)c1ccc2c(c1)/C(=C/c1cc3c([nH]1)CCCC3)C(=O)N2` [SU6656] the figure was 5800 ± 3500 nM.
Turning to `COc1ccc2c(c1)CC[C@@H]1[C@@H]2CC[C@]2(C)[C@@H](NCCCCCCN3C(=O)C=CC3=O)CC[C@@H]12` [U73122], the IC50 in test [1] (antigen-mediated RBL-2H3 activation, read-out: IC-50 value) was roughly 1000 nM; in test [1] (mast cell activation by impedance, Bisindolylmaleimide N=3, SU6656 N=5, U73122 N=5, Piceatannol N=1, read-out: IC50±SD), 930 ± 600 nM.
Regarding DNP-BSA: multi-valent antigen DNP-BSA, in the test with RBL-2H3 mast cells [2], the “time of return to baseline” value is “approximately 2.5 hours”, the “time to detectable impedance increase” value is no more than 5 min and the “time to maximal impedance increase” value is no more than 30 min. Moreover, in the test with RBL-2H3 mast cells [3] (printed as post IgE stimulation), the “time at which extensive ruffling is apparent” value is 2.5 min. The “time of peak cytoskeletal reorganization” value in the test on RBL-2H3 mast cells [3] (printed as post-IgE stimulation) is 30 to 45 min.
